# Data from article PMC6691349 (Frontiers in Chemistry, 2019).
# Key:
# falcipain-2 [1] = molecular target: T1, falcipain-2 (Plasmodium falciparum, UniProt Q8I6U4); assay: fluorometric Z-LR-AMC kinetic assay with refolded recombinant enzyme; global fit to mixed inhibition model; assay type: biochemical
# T1 construct: gene FP2A
# falcipain-2 [2] = molecular target: T1, falcipain-2; assay: fluorometric Z-LR-AMC kinetic assay with refolded recombinant enzyme; global fit to competitive and Morrison equations; reversibility by rapid dilution; assay type: biochemical
# [3] = test system: Cc1cc(=O)oc2cc(NC(=O)[C@H](CCCNC(=N)N)NC(=O)[C@H](CC(C)C)NC(=O)OCc3ccccc3)ccc12; assay: purified protein; conditions: accommodates completely within falcipain-2 active site
# T1 sequence (Q8I6U4 244-484): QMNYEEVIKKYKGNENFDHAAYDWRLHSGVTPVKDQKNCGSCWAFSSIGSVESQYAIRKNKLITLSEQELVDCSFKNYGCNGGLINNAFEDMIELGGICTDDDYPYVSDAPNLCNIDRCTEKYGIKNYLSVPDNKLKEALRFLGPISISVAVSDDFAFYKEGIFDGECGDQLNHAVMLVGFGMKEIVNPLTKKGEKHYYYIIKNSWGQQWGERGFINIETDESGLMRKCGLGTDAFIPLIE
compound,measurement,setting,value
C=C1c2cccc(O)c2C(=O)C2=C(O)[C@]3(O)C(=O)C(C(N)=O)=C(O)[C@@H](N(C)C)[C@@H]3[C@@H](O)[C@H]12 [methacycline],Ki,falcipain-2 [1],84.4 ± 6.5 µM
CC(C)(F)C[C@H](N[C@@H](c1ccc(-c2ccc(S(C)(=O)=O)cc2)cc1)C(F)(F)F)C(=O)NC1(C#N)CC1 [odanacatib],Ki,falcipain-2 [2],0.0982 ± 0.0102 µM
falcipain-2 (Plasmodium falciparum 3D7),Km,[3],4.8 µM
